We go through 4 compounds from patent US9051348B2, “Ginsenoside with anti-cancer activity and the preparation method thereof” (Macau University of Science and Technology, priority 2012, dated 2015).

The test system of data set [1] is panel of 7 tumor cell lines and human normal lung fibroblasts. The note with it: previous studies of the inventors, cited from earlier work.
The subject of a further data set is several tumor cell lines. The note with it: literature [2], cited from earlier work.
The conditions of data set [2]: literature [4]; cited from earlier work.
Another data set concerns osteoclastgenesis. The settings on record: literature [2]; cited from earlier work.
For data set [3] the following is noted: in cell culture; previous studies of the inventors; cited from earlier work.
The test system of data set [4] is lung cancer cells (LLC-1). As to the kind of experiment: MTT cytotoxicity assay in LLC-1 cells. Format: cell-based, mouse. As for the experimental part: (§1) The novel compound was dissolved in DMSO at final concentration of 100 mmol/L and stored at −20° C. Cytotoxicity was assessed using the 3-(4,5-dimethylthiazol-2-yl)-2,5-diphenyltetrazolium bromide assay as described previously. Several kinds of cells were seeded on 96-well plates, namely MCF-7, 4000 cells; HepG2, 4000 cells; HeLa, 3000 cells; A549, 4000 cells; LLC-1, 3000 cells; H1299, 3000 cells; CCD19Lu, 4000 cells per well. After overnight pre-incubation, the cells were exposed to different concentrations of the novel compound (0.039-100 μmol/L) or control compounds 20(S)-Rh2 and 20(R)-Rh2 for 3 days. Subsequently, 10 μL of MTT reagents was added to each well and incubated at 37° C. for 4 hours followed by the addition of 100 μL solubilization buffer (10% SDS in 0.01 mol/L HCl) and overnight incubation. A585 nm was determined from each well the next day. The percentage of viable cells was calculated using the following formula: Cell viability (%)=Atreated/Acontrol×100. Data was obtained from three independent experiments.
(Formazan colour is commonly taken as a measure of viable cells.)

The test system of data set [5] is human normal lung fibroblasts CCD19Lu. The data set is described as follows: MTT cytotoxicity assay in CCD19Lu cells. It is filed as cell-based. As for the experimental part: as §1
A short description of data set [6]: Acute oral toxicity, OECD Test Guideline 423, 14-day. Format: in vivo, C57BL/6J mice. As for the experimental part:
The acute oral toxicity of the novel compound was evaluated in line with the Organization for Economic Cooperation and Development (OECD) Guideline for Testing Chemicals—Acute Oral Toxicity—Acute Toxic Class Method (Test Guideline 423, Adopted on 17 Dec. 2001). Based on the result of Example 4, the Test Procedure with a Starting Dose of 2000 mg/kg (Annex 2d of OECD 423) was selected to evaluate the acute toxicity of the novel compound. In the test, 3 female and 3 male C57BL/6J mice (SPF grade) were fasted overnight and then orally administrated by gavage feeding with single dose of the novel compound solution at 2000 mg/kg.

Data set [7] deals with other five cancer cell lines (MCF-7, HepG2, HeLa, A549, H1299). Format: cell-based. As for the experimental part: as §1
Data set [8] is described as follows: Sub-chronic lethal dose study, 7-day repeated oral dosing. Format: in vivo, male C57BL/6J mice. The note with it: 160 and 320 mg/kg/day oral, 7-day treatment. As for the experimental part:
10 male C57BL/6J mice were divided into two treatment groups, i.e. 160 mg/kg/day and 320 mg/kg/day. The novel compound powder was dissolved with PEG400:ethanol:distilled water in a ratio of 60%:10%:30% (v/v/v), and orally administrated to mice by gavage feeding at doses of 160 and 320 mg/kg/day for 7 consecutive days. The health condition of the animals was monitored and their body weights were recorded during this 7 days treatment duration.

The subject of the next data set is LLC-1 tumor. It is filed as in vivo, male C57BL/6J mice. The settings on record: for suppression on the tumor growth: 21-day treatment, vs vehicle. As for the experimental part: The LLC-1 cells harvested from in vitro culture were adjusted to a concentration of 1.5×10^7/mL and 0.1 mL cell suspension was injected subcutaneously into the dorsal region of the male C57BL/6J mice. Subsequently, when 70% of mice had developed tumor into a volume (length×width^2×0.52) larger than 50 mm^3, the animals were randomly divided into the vehicle control and several treatment groups. The novel compound powder was dissolved with PEG400:ethanol:distilled water in a ratio of 60%:10%:30% (v/v/v), and orally administrated to mice by gavage feeding at doses of 10, 20, 40 and 80 mg/kg/day for 21 consecutive days. Oral administration of 80 mg/kg/day 20(R)-Rh2, 20(S)-Rh2 and 20(S)-Rg3, and 10 mg/kg/day 5-Fu were designed as control groups. In order to make sure all groups were appropriately blended, all the experimental procedures such as subcutaneous tumor cells injection, treatment and tumor size measurement were performed by three individual persons who were blended for animal group identity.

Data set [9] in a line: MTT cytotoxicity assay in CCD19Lu cells. It is filed as cell-based, human. The settings on record: human. As for the experimental part:
as §1

Structures are written as SMILES. Read-outs that look alike come from different tables or passages of the source.

In the case of `CC(C)=CCC[C@@](C)(O)[C@H]1CC[C@]2(C)[C@@H]1[C@H](O)C[C@@H]1[C@@]3(C)CC[C@H](O[C@@H]4O[C@H](CO)[C@@H](O)[C@H](O)[C@H]4O)C(C)(C)[C@@H]3CC[C@]12C` [20(R)-Rh2, 20(R)-ginsenoside Rh2], the “concentration up to which no cytotoxic effect” value in [1] (in cell culture) was over 100 µM. Also, in the data set with several tumor cell lines, the “cell cytotoxicity (in words)” value is on record as “without any cell cytotoxicity”. Moreover, the “intestinal absorption (in words)” value in data set [2] is recorded as “lower absorption profiles”. For the same compound, the “osteoclastgenesis inhibition (in words)” value in the data set on osteoclastgenesis is recorded as “selective osteoclastgenesis inhibitor”. Further, in [3], the “solubility (in words)” value is given as “poor solubility”. The “cytotoxicity (in words)” value in [4] (LLC-1 cells, MTT, 3 days exposure) is “no cytotoxicity”; in [5] (CCD19Lu cells, MTT, 3 days exposure) it was “no cytotoxicity”.

For `CC(C)=CCC[C@](C)(O)[C@H]1CC[C@]2(C)[C@@H]1[C@H](O)C[C@@H]1[C@@]3(C)CC[C@H](O[C@@H]4O[C@H](CO)[C@@H](O)[C@H](O)[C@H]4O)C(C)(C)[C@@H]3CC[C@]12C` [20(S)-Rh2], the IC50 in data set [1] (panel of 7 tumor cell lines and human normal lung fibroblasts, read-out: cytotoxicity, IC50) was 45 to 65 µM; in the data set with several tumor cell lines (several tumor cell lines, read-out: cytotoxicity, IC50) it was 22 to 50 µM; in data set [4], 46.5 µM; in [5] it was 80.5 µM.

`CC(C)=CCC[C@](C)(O)[C@H]1CC[C@]2(C)[C@@H]1[C@H](O)C[C@@H]1[C@@]3(C)CC[C@H](O[C@@H]4O[C@H](CO)[C@@H](O)[C@H](O)[C@H]4O)C(C)(C)[C@@H]3CC[C@]12C` [Rh2, Ginsenoside Rh2]: in [2], the “intestinal absorption (in words)” value was “poor intestinal absorption” and the “permeability (in words)” value is listed as “poor permeability”.

Turning to `CC(C)(O)C1CC[C@](C)(C2CC[C@]3(C)C2[C@H](O)CC2[C@@]4(C)CC[C@H](O[C@@H]5OC(CO)[C@@H](O)C(O)C5O)C(C)(C)C4CC[C@]23C)O1` (stereo partly drawn) [novel compound], the “Globally Harmonized Classification System (GHS) class” value in data set [6] (acute oral toxicity, OECD Test Guideline 423) is listed as “Class 5 or unclassified”. Moreover, the LD50 at 14 days in [6] (both sexes, C57BL/6J, mouse, in vivo, 2000 mg/kg, oral, mice, estimated per OECD Test Guideline 423 criteria) is over 5000 mg/kg. For the same compound, the “body weight and sign of toxicity” value in [6] (single oral dose 2000 mg/kg, 14 days) was “no significant drop of body weight and sign of toxicity”. In data set [6] (single oral dose 2000 mg/kg, 14 days, both gender), the animal death entry is “zero animal death”. In addition, in data set [7], the “cytotoxic potency (in words)” value was “dose-dependent cytotoxic potency”. In data set [8], this compound yielded an animal survival of 100%. Further, the body weight entry in data set [8] is “no significant drop of body weight”. Moreover, the “suppression on the tumor growth” value is 35.24% in the data set on LLC-1 tumor (10 mg/kg/day oral, P>0.05); 40.49% in the data set with LLC-1 tumor (20 mg/kg/day oral, P>0.05); 44.9% with LLC-1 tumor (40 mg/kg/day oral, P<0.05); 52.04% with LLC-1 tumor (80 mg/kg/day oral, P<0.01). Further, the “adverse impacts on the major organs and body weight” value in the data set on LLC-1 tumor (mouse, in vivo, po) is recorded as “without observable adverse impacts”. In addition, the IC50 in [4] (Mus musculus, LLC1, 72 h, read-out: cytotoxic effect, IC50) came out at 56 µM. The same compound came in with an IC50 at 3 days in data set [9] of over 100 µM.

For orientation: IC50 means the concentration that inhibits the measured activity by half. In general, LD50 refers to the dose at which mortality reaches 50%.
